Legend:
[1] = biological target: T1, PvdF (Pseudomonas aeruginosa, UniProt Q9I184); test: direct injection mass spectrometry of fOHOrn product; format: biochemical; conditions: 25 uM PvdF, 1 mM OHOrn, 1.5 mM fTHF, 10 mM HEPES pH 8.0, 30 C, 3 h
T1 construct: recombinant from E. coli BL21(DE3), His6 tag kept at N-terminus (His6PvdF, pET-DUET1; also all variants) or C-terminus (PvdFHis6, pET21a); IMAC and SEC; monomer

[2] = biological target: T1, PvdF; test: differential scanning fluorimetry, SYPRO Orange; format: binding; conditions: 10 uM protein, 1.5 mM fTHF, 10 mM HEPES pH 8.0; site not determined; also co-substrate in the activity assay

T1 sequence (Q9I184 entry or part of it): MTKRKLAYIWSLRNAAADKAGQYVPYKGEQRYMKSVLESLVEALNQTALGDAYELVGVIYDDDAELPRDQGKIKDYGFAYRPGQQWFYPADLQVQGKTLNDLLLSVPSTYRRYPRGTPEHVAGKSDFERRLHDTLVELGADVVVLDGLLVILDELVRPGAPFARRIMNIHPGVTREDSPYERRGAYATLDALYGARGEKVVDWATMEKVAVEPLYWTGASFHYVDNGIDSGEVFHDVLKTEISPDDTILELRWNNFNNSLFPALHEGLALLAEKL

For `N[C@@H](CCCNO)C(=O)O` [L-OHOrn], the “direct injection mass spectrometry of fOHOrn product” value [1] was “able to convert OHOrn to fOHOrn with fTHF as the co-substrate”.

`Nc1nc2c(c(=O)[nH]1)N[C@@H](CN(C=O)c1ccc(C(=O)N[C@@H](CCC(=O)O)C(=O)O)cc1)CN2` [N^10-formyltetrahydrofolate] was tested, and the thermal shift [2] was “addition of fTHF resulted in a significant change in fluorescence of wild-type PvdF”.

— paper PMC7926923, “Identification of Active Site Residues of the Siderophore Synthesis Enzyme PvdF and Evidence for Interaction of PvdF with a Substrate-Providing Enzyme” (International Journal of Molecular Sciences, 2021)
